# Where a name gives a salt, the structure may show the parent alone.
# Target: T1, catalytic domain of human PARP14 (residues 1611 to 1801) with NanoLuc tag (Homo sapiens, UniProt Q460N5)
# T1 construct: expressed in transfected cells; host or cells: HEK-293T cells (ATCC), pcDNA3.1(-) vector
# T1 sequence (Q460N5 1611-1801): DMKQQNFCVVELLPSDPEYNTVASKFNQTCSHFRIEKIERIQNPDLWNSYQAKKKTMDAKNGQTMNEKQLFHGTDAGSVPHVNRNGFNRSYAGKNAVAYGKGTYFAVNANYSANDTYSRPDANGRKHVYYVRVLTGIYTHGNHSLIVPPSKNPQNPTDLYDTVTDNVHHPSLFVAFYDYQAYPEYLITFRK
# Test: NanoLuc assay for the degradation of PARP14 (NanoLuc-tagged PARP14 overexpressed in HEK-293T cells, 2 hours)
# Assay type: cell-based
# Settings: Assay A (Example A): NanoLuc-tagged PARP14 degradation in HEK-293T cells
row,SMILES,DC50
1,"O=C1CCC(Nc2ccc(N3CCN(CCN4CCC(COc5cc(F)c6c(=O)[nH]c(CCC7CCOCC7)nc6c5)CC4)CC3)cc2)C(=O)N1 (stereo not drawn) [Example 82, 3-((4-(4-(2-(4-(((5-fluoro-4-oxo-2-(2-(tetrahydro-2H-pyran-4-yl)ethyl)-3,4-dihydroquinazolin-7-yl)oxy)methyl)piperidin-1-yl)ethyl)piperazin-1-yl)phenyl)amino)piperidine-2,6-dione]",< 100 nM

# Same assay, conditions: Assay A (Example A): NanoLuc-tagged PARP14 degradation in HEK-293T cells, read-out: DC50
row,SMILES,DC50
1,"O=C1CCC(Nc2ccc(N3CC4CC(C3)N4CCN3CCC(COc4cc(F)c5c(=O)[nH]c(CSC6CCOCC6)nc5c4)CC3)cc2)C(=O)N1 (stereo not drawn) [Example 73, 3-((4-(6-(2-(4-(((5-fluoro-4-oxo-2-(((tetrahydro-2H-pyran-4-yl)thio)methyl)-3,4-dihydroquinazolin-7-yl)oxy)methyl)piperidin-1-yl)ethyl)-3,6-diazabicyclo[3.1.1]heptan-3-yl)phenyl)amino)piperidine-2,6-dione]",< 100 nM
2,"O=C1CCC(N2C(=O)c3ccc(OC4CC(CN5CCC(COc6cc(F)c7c(=O)[nH]c(CSC8CCOCC8)nc7c6)CC5)C4)cc3C2=O)C(=O)N1 (stereo not drawn) [Example 79a, 2-(2,6-dioxopiperidin-3-yl)-5-((1r,3r)-3-((4-(((5-fluoro-4-oxo-2-(((tetrahydro-2H-pyran-4-yl)thio)methyl)-3,4-dihydroquinazolin-7-yl)oxy)methyl)piperidin-1-yl)methyl)cyclobutoxy)isoindoline-1,3-dione]",< 100 nM
3,"O=C1CCC(Nc2ccc(OC3CC(N4CCC(COc5cc(F)c6c(=O)[nH]c(CSC7CCOCC7)nc6c5)CC4)C3)cc2)C(=O)N1 (stereo not drawn) [Example 81, 3-((4-(3-(4-(((5-fluoro-4-oxo-2-(((tetrahydro-2H-pyran-4-yl)thio)methyl)-3,4-dihydroquinazolin-7-yl)oxy)methyl)piperidin-1-yl)cyclobutoxy)phenyl)amino)piperidine-2,6-dione]",< 100 nM
4,"O=C1CCC(Nc2ccc(CN3CCC(N4CCC(COc5cc(F)c6c(=O)[nH]c(CSC7CCOCC7)nc6c5)CC4)CC3)cc2)C(=O)N1 (stereo not drawn) [Example 84, 3-((4-((4-(((5-fluoro-4-oxo-2-(((tetrahydro-2H-pyran-4-yl)thio)methyl)-3,4-dihydroquinazolin-7-yl)oxy)methyl)-[1,4′-bipiperidin]-1′-yl)methyl)phenyl)amino)piperidine-2,6-dione]",< 100 nM
5,"O=C1CCC(N2C(=O)c3ccc(N4CCC(N5CCN(Cc6cc(F)c7c(=O)[nH]c(CSC8CCOCC8)nc7c6)CC5)CC4)cc3C2=O)C(=O)N1 (stereo not drawn) [Example 85, 2-(2,6-dioxopiperidin-3-yl)-5-(4-(4-((5-fluoro-4-oxo-2-(((tetrahydro-2H-pyran-4-yl)thio)methyl)-3,4-dihydroquinazolin-7-yl)methyl)piperazin-1-yl)piperidin-1-yl)isoindoline-1,3-dione]",< 100 nM
6,"O=C1CCC(Nc2ccc(N3CCC(N4CC(N5CCC(COc6cc(F)c7c(=O)[nH]c(CSC8CCOCC8)nc7c6)CC5)C4)CC3)cc2)C(=O)N1 (stereo not drawn) [Example 88, 3-((4-(4-(3-(4-(((5-fluoro-4-oxo-2-(((tetrahydro-2H-pyran-4-yl)thio)methyl)-3,4-dihydroquinazolin-7-yl)oxy)methyl)piperidin-1I-yl)azetidin-1-yl)piperidin-1-yl)phenyl)amino)piperidine-2,6-dione]",< 100 nM
7,"O=C1CCC(Nc2ccc(OC3CC(CN4CCC(COc5cc(F)c6c(=O)[nH]c(CS[C@H]7CC[C@H](O)CC7)nc6c5)CC4)C3)cc2)C(=O)N1 (stereo partly drawn) [Example 90, 3-((4-(3-((4-(((5-fluoro-2-((((1r,4r)-4-hydroxycyclohexyl)thio)methyl)-4-oxo-3,4-dihydroquinazolin-7-yl)oxy)methyl)piperidin-1-yl)methyl)cyclobutoxy)phenyl)amino)piperidine-2,6-dione formate]",< 100 nM
8,"O=C1CCC(Nc2ccc(N3CC4CCC(C3)N4CCN3CCC(COc4cc(F)c5c(=O)[nH]c(CSC6CCOCC6)nc5c4)CC3)cc2)C(=O)N1 (stereo not drawn) [Example 95, 3-((4-(8-(2-(4-(((5-fluoro-4-oxo-2-(((tetrahydro-2H-pyran-4-yl)thio)methyl)-3,4-dihydroquinazolin-7-yl)oxy)methyl)piperidin-1-yl)ethyl)-3,8-diazabicyclo[3.2.1]octan-3-yl)phenyl)amino)piperidine-2,6-dione]",< 100 nM

# Continued, values first:
row,DC50,SMILES
1,< 100 nM,"Cn1nc(N2CCC(=O)NC2=O)c2ccc(C3CCN(CCN4CCC(COc5cc(F)c6c(=O)[nH]c(CSC7CCOCC7)nc6c5)CC4)CC3)cc21 [Example 74, 1-(6-(1-(2-(4-(((5-fluoro-4-oxo-2-(((tetrahydro-2H-pyran-4-yl)thio)methyl)-3,4-dihydroquinazolin-7-yl)oxy)methyl)piperidin-1-yl)ethyl)piperidin-4-yl)-1-methyl-1H-indazol-3-yl)dihydropyrimidine-2,4(1H,3H)-dione]"
2,< 100 nM,"Cn1nc(N2CCC(=O)NC2=O)c2ccc(N3CCN(CCN4CCC(COc5cc(F)c6c(=O)[nH]c(CSC7CCOCC7)nc6c5)CC4)CC3)cc21 [Example 75, 1-(6-(4-(2-(4-(((5-fluoro-4-oxo-2-(((tetrahydro-2H-pyran-4-yl)thio)methyl)-3,4-dihydroquinazolin-7-yl)oxy)methyl)piperidin-1-yl)ethyl)piperazin-1-yl)-1-methyl-1H-indazol-3-yl)dihydropyrimidine-2,4(1H,3H)-dione]"
3,< 100 nM,"O=C1CCC(Nc2ccc(O[C@@H]3C[C@@H]4CN(CCN5CCC(COc6cc(F)c7c(=O)[nH]c(CSC8CCOCC8)nc7c6)CC5)C[C@@H]4C3)cc2)C(=O)N1 (stereo partly drawn) [Example 76, 3-((4-(((3aR,51,6aS)-2-(2-(4-(((5-fluoro-4-oxo-2-(((tetrahydro-2H-pyran-4-yl)thio)methyl)-3,4-dihydroquinazolin-7-yl)oxy)methyl)piperidin-1-yl)ethyl)octahydrocyclopenta[c]pyrrol-5-yl)oxy)phenyl)amino)piperidine-2,6-dione]"
4,< 100 nM,"O=C1CCN(c2ccc(C3CCN(CCN4CCC(COc5cc(F)c6c(=O)[nH]c(CSC7CCOCC7)nc6c5)CC4)CC3)cc2)C(=O)N1 [Example 77, 1-(4-(1-(2-(4-(((5-fluoro-4-oxo-2-(((tetrahydro-2H-pyran-4-yl)thio)methyl)-3,4-dihydroquinazolin-7-yl)oxy)methyl)piperidin-1-yl)ethyl)piperidin-4-yl)phenyl)dihydropyrimidine-2,4(1H,3H)-dione]"
5,< 100 nM,"Cn1c(=O)n(C2CCC(=O)NC2=O)c2ccc(C3CCN(CCN4CCC(COc5cc(F)c6c(=O)[nH]c(CSC7CCOCC7)nc6c5)CC4)CC3)cc21 (stereo not drawn) [Example 78, 3-(5-(1-(2-(4-(((5-fluoro-4-oxo-2-(((tetrahydro-2H-pyran-4-yl)thio)methyl)-3,4-dihydroquinazolin-7-yl)oxy)methyl)piperidin-1-yl)ethyl)piperidin-4-yl)-3-methyl-2-oxo-2,3-dihydro-1H-benzo[d]imidazol-1-yl)piperidine-2,6-dione]"
6,< 100 nM,"O=C1CCC(Nc2ccc(N3CCN(CCN4CCC(COc5cc(F)c6c(=O)[nH]c(CS[C@H]7CC[C@H](O)CC7)nc6c5)CC4)CC3)cc2)C(=O)N1 (stereo partly drawn) [Example 83, 3-((4-(4-(2-(4-(((5-fluoro-2-((((1r,4r)-4-hydroxycyclohexyl)thio)methyl)-4-oxo-3,4-dihydroquinazolin-7-yl)oxy)methyl)piperidin-1-yl)ethyl)piperazin-1-yl)phenyl)amino)piperidine-2,6-dione]"
7,< 100 nM,"O=C1CCC(Nc2ccc(N3CCC(N4CCN(CCc5cc(F)c6c(=O)[nH]c(CSC7CCOCC7)nc6c5)CC4)CC3)cc2)C(=O)N1 (stereo not drawn) [Example 86, 3-((4-(4-(4-(2-(5-fluoro-4-oxo-2-(((tetrahydro-2H-pyran-4-yl)thio)methyl)-3,4-dihydroquinazolin-7-yl)ethyl)piperazin-1-yl)piperidin-1-yl)phenyl)amino)piperidine-2,6-dione]"
8,< 100 nM,"O=C1CCC(Nc2ccc(OC3CCN(C4CCC(COc5cc(F)c6c(=O)[nH]c(CSC7CCOCC7)nc6c5)CC4)CC3)cc2)C(=O)N1 (stereo not drawn) [Example 87, 3-((4-((1-(4-(((5-fluoro-4-oxo-2-(((tetrahydro-2H-pyran-4-yl)thio)methyl)-3,4-dihydroquinazolin-7-yl)oxy)methyl)cyclohexyl)piperidin-4-yl)oxy)phenyl)amino)piperidine-2,6-dione]"
9,< 100 nM,"O=C1CCC(Nc2ccc(N3CCC(N4CCC(COc5cc(F)c6c(=O)[nH]c(CSC7CCN(CC(F)(F)F)CC7)nc6c5)CC4)CC3)cc2)C(=O)N1 (stereo not drawn) [Example 89, 3-((4-(4-(((5-fluoro-4-oxo-2-(((1-(2,2,2-trifluoroethyl)piperidin-4-yl)thio)methyl)-3,4-dihydroquinazolin-7-yl)oxy)methyl)-[1,4′-bipiperidin]-1′-yl)phenyl)amino)piperidine-2,6-dione]"
10,< 100 nM,"O=C1CCC(Nc2ccc(NC3CCN(CCN4CCC(COc5cc(F)c6c(=O)[nH]c(CSC7CCOCC7)nc6c5)CC4)CC3)cc2)C(=O)N1 (stereo not drawn) [Example 94, 3-((4-((1-(2-(4-(((5-fluoro-4-oxo-2-(((tetrahydro-2H-pyran-4-yl)thio)methyl)-3,4-dihydroquinazolin-7-yl)oxy)methyl)piperidin-1-yl)ethyl)piperidin-4-yl)amino)phenyl)amino)piperidine-2,6-dione]"
11,< 100 nM,"O=C1CCC(Nc2ccc(N3CCN(CCN4CCC(COc5cc(F)c6c(=O)[nH]c(CC7CCCC7)nc6c5)CC4)CC3)cc2)C(=O)N1 (stereo not drawn) [Example 96, 3-((4-(4-(2-(4-(((2-(cyclopentylmethyl)-5-fluoro-4-oxo-3,4-dihydroquinazolin-7-yl)oxy)methyl)piperidin-1-yl)ethyl)piperazin-1-yl)phenyl)amino)piperidine-2,6-dione]"
12,< 100 nM,O=C1CCC(Nc2ccc(OC3CC(CN4CCC(COc5cc(F)c6c(=O)[nH]c(CSC7CCN(CC(F)(F)F)CC7)nc6c5)CC4)C3)cc2)C(=O)N1 (stereo not drawn) [Example 109]
